# Data published in patent US5912183A, “Peptide inhibitors of mitogenesis and motogenesis” (Pharmacia & Upjohn S.p.A., priority 1993, dated 1999).
# Residues, ends and D or L forms follow the SMILES beside them.
# What was measured:
# [1] = molecular target: T1, binding of p85 to HGF/SF receptor (Bos taurus, UniProt P23727); assay: Competition of phosphopeptides with p85 for association with immobilized recombinant HGF/SF receptor (in vitro kinase assay readout); set-up: species or system human; conditions: phosphopeptide 10 μM; p85 from Sf9 lysates; FIG. 1
# T1 construct: made in house; host or cells: Sf9 insect cells (baculovirus), for both p85 and the receptor
# T1 sequence (P23727 whole entry): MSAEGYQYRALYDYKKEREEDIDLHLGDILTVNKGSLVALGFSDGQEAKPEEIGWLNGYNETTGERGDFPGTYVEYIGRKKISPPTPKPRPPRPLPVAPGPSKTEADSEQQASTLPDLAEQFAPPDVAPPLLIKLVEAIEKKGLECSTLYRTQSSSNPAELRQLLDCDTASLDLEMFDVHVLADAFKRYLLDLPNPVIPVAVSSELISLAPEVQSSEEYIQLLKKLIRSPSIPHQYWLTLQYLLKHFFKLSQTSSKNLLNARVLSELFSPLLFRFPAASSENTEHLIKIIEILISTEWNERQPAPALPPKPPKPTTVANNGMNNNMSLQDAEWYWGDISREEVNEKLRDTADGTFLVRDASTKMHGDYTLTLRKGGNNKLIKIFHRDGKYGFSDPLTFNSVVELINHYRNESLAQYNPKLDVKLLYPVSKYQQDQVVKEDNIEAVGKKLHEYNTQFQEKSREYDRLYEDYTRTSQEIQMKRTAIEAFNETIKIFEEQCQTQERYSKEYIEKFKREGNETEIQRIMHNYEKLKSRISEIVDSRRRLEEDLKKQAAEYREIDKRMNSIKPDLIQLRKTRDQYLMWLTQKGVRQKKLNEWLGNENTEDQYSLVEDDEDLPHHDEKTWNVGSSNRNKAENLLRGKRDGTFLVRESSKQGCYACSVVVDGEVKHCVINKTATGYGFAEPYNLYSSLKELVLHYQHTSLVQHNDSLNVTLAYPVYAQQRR
# Experimental: FIG. 1. Inhibition of binding of p85 to HGF/SF receptor by tyrosine-phosphorylated peptides. Recombinant HGF/SF receptor was purified by immunoprecipitation from baculovirus-infected Sf9 cells using a rabbit polyclonal antiserum and phosphorylated with cold ATP. Lysates of Sf9 cells expressing p85 were pre-incubated with each of the phosphopeptides (10 μM). The lysates were then allowed to associate with immobilized recombinant HGF/SF receptors. Following association the complex was washed and receptor-bound p85 was detected by an in vitro kinase assay, as described in Materials and Methods of Example 4. The phosphopeptides are identified by the number of the amino terminal tyrosine.
# FIG. 2. Inhibition of binding of p85 to HGF/SF receptor with different concentrations of tyrosine-phosphorylated peptides. The phosphopeptides which efficiently out-competed p85 binding to the HGF/SF receptor (FIG. 1) were used at increasing concentrations (10 nM, 100 nM, 1 μM from left to right) to define their relative affinities for p85. Conditions of the experiment were as in FIG. 1. Phosphopeptide 1365 was used as a negative control for p85 interaction.
# In vitro association experiments. Sf9 cells expressing the recombinant HGF/SF receptor (approximately 4×10^6 cells/point) were lysed 36 hours after infection in buffer A (10 mM Tris-HCl buffer pH 7.5, 10% glycerol, 1% Triton X-100, 150 mM NaCl, 5 mM EDTA), supplemented with 0.2 mM phenyl-methylsulfonyl fluoride, 1 μg/ml leupeptin, 0.1 TIU/ml aprotinin and 1 μg/ml pepstatin. Lysates were clarified at 15,000×g at 4° C. for 15 minutes and the supernatants immunoprecipitated after 2 hours incubation with anti-Met antibodies coupled to Protein A-Sepharose. Immunocomplexes were washed three times with buffer A, once with buffer B (10 mM Tris-HCl pH 7.4, 100 mM NaCl, 1 mM EDTA) and once with buffer C (25 mM 4-(2-hydroxyethyl)-1-piperazine-ethanesulfonic acid (HEPES) buffer pH 7.2, 100 mM NaCl, 5 mM MgCl2). Samples were pre-phosphorylated by incubation for 15 minutes at 25° C. in buffer C with 10 μM unlabelled ATP and then washed three times with cold buffer A supplemented with 1 mM sodium ortho-vanadate. Association between the immobilized receptor and the baculovirus-expressed p85 was carried out as previously described (Bardelli, A., et al., Oncogene 7: 1973-1978 (1992)). For the association experiments with the PI 3-kinase holoenzyme three days serum-starved A549 cells (approx. 2×10^6 cells/point) were used as a source of PI 3-kinase. A549 cells were Dounce-homogenized in MOPS buffer (20 mM 3-(N-morpholino)propanesulfonic acid) (pH 7.5), 1 mM MgCl2, 0.1 mM EDTA, 200 mM sucrose, 1 mM sodium ortho-vanadate), supplemented with 0.2 mM phenylmethylsulfonyl fluoride, 1 μg/ml leupeptin, 0.1 TIU/ml aprotinin and 1 μg/ml pepstatin. Homogenates were centrifuged at 100,000×g for 20 minutes at 4° C. When checking for the ability of phosphopeptides to block the association with the receptor, cell lysates were pre-incubated with the phosphopeptides for 1 hour at 4° C. prior to incubation with the immobilized recombinant HGF/SF receptor. Following association, immunocomplexes were washed three times with buffer A, twice with buffer D (0.5M LiCl, 100 mM Tris-HCl pH 7.6), and twice with buffer B.
# The presence of the p85 subunit of the PI 3-kinase in the receptor immunoprecipitate was determined by: i) labelling of the receptor and associated proteins with [γ-^32 P]ATP by in vitro kinase assay; ii) Western immunoblotting; iii) PI 3-kinase activity assay.
# In vitro kinase assay. Receptor-associated proteins were labelled in 20 μl of buffer C, in the presence of 10 μCi [γ-^32 P]ATP (specific activity 7,000 Ci/Mm; Amersham) at 25° C. for 15 minutes. The reaction was stopped by adding 1 ml of ice-cold Buffer A without protease inhibitors. Samples were washed three times with cold buffer A. The labelled immunocomplexes were eluted from Protein A-Sepharose in boiling Laemmli buffer. […]
# [2] = system: N- and C-SH2 domains of p85; assay: BIAcore inhibition of binding of GST-SH2 domains to immobilized PDGF receptor phosphopeptide Y751; set-up: species or system bovine; conditions: range of phosphopeptide concentrations; 25° C.; FIG. 7
# Experimental: FIG. 7. Evaluation of the relative affinities of phosphotyrosine 1313, 1349 and 1356 for the N- and C- SH2 domains of p85. Affinities were determined by biospecific interaction analysis with the BIAcore instrument (Jonsson, U., Fagerstam, L., Roos, H., Ronnberg, J., Sjolander, Stenber, E., Stahlberg, R. Urbaniczky, C., Ostlin, H., and Malmquist. 1991. Surface plasmon reasonance and microfluidics for real time biospecific interaction analysis. Biotechniques 11: 520-527; Jonsson, U. and M. Malmquist. 1992. Real time biospecific analysis. The integration of surface plasmon reasonance detection, general biospecific interface chemistry and microfluidics into one analytical system p. 291-336. In F. Turner (ed), Advances in Biosensors, vol. 2 JAI Press, London; Karlsson, R., Michaelsson, A., and L. Mattsson. 1991. Kinetic analysis of monoclonal antibody-antigen interactions with a new biosensor based analytical system. J. Immunol. Meth. 145: 229-246).
# Relative affinities were determined by measuring the ability of the phosphopeptides to inhibit the interaction of the SH2 domains with an immobilized phosphopeptide (DMSKDESVDY*VPMLDMK) (SEQ. ID NO: 26) which includes Y751 in the human PDGF receptor. Panel A and B show the results of these measurements, expressed as % inhibition of binding to phosphopeptide Y751.
# GST-SH2 domain fusion proteins. The N- and C-SH2 domains of the bovine PI 3-kinase p85 subunit (amino acids 314-431 and 612-722) were obtained by polymerase chain reaction and cloned into the pGEX-2 bacterial expression vector (Smith, D. B., and Johnson K. S., Gene 67: 31-40 (1988).
# Glutathione-S-transferase (GST)-SH2 fusion proteins were purified from bacterial lysates by glutathione affinity chromatography (Panayotou, G., et al. EMBO J., 11: 4261-4272 (1992)). Amino acid analysis on an Applied Biosystems 420A analyzer was used to determine the concentration of the recombinant proteins.
# Analysis of the interaction of Y1349 and Y1356 with the p85 N- and C- SH2 domains using the BIAcore. […]
SMILES,Inhibition of binding of p85 to HGF/SF receptor [1],Apparent relative affinity: inhibition of binding of p85 N- and C-SH2 domains to phosphopeptide Y751 [2]
CC(C)[C@H](NC(=O)[C@H](CS)NC(=O)[C@H](CCCCN)NC(=O)[C@@H](NC(=O)[C@H](CC(N)=O)NC(=O)[C@@H](NC(=O)[C@@H](N)Cc1ccc(OP(=O)(O)O)cc1)C(C)C)C(C)C)C(=O)N[C@@H](C)C(=O)O [H-Tyr*-Val-Asn-Val-Lys-Cys-Val-Ala-OH] (HELM PEPTIDE1{[N[C@@H](Cc1ccc(OP(=O)(O)O)cc1)C(=O)[*:2]].V.N.V.K.C.V.A}$$$$V2.0),efficiently outcompeted p85,"inhibit binding of p85 N- and C-SH2 domains to phosphopeptide Y751, but at higher concentrations"
CC(C)[C@H](NC(=O)[C@H](Cc1c[nH]cn1)NC(=O)[C@@H](NC(=O)[C@@H](N)Cc1ccc(OP(=O)(O)O)cc1)C(C)C)C(=O)N[C@@H](CC(N)=O)C(=O)N[C@@H](C)C(=O)N[C@H](C(=O)N[C@@H](Cc1ccc(O)cc1)C(=O)O)[C@@H](C)O [H-Tyr*-Val-His-Val-Asn-Ala-Thr-Tyr-OH] (HELM PEPTIDE1{[N[C@@H](Cc1ccc(OP(=O)(O)O)cc1)C(=O)[*:2]].V.H.V.N.A.T.Y}$$$$V2.0),efficiently outcompeted p85,"inhibit binding of p85 N- and C-SH2 domains to phosphopeptide Y751, but at higher concentrations"
